2 compounds from patent publication US4798897A, “Isoquinoline derivatives” (Asahi Kasei Kogyo Kabushiki Kaisha, priority 1987, dated 1989) can be followed below.

As usually defined, the LD50 is the dose at which mortality reaches 50%. Read a high LD50 as a less toxic substance.

The subject of one series is femoral artery. Put plainly: Blood flow increase of femoral artery in anesthetized dogs, i.v. Format: in vivo, dog (mongrel). As to conditions: Canis lupus familiaris, iv, dog; for change in vivo at 0.3 mg/kg: i.v., read-out: Increase in femoral artery blood flow. How it is done:
(§1) 2. Blood Flow Increase of Coronary, Vertebral and Femoral Arteries
(§2) A plethysmographic probe (manufactured and sold by NIHON KODEN CO., LTD., Japan) was mounted on the coronary, vertebral and femoral arteries, and blood flow was measured by means of an electromagnetic blood flowmeter (type:MF-27, manufactured and sold by NIHON KODEN CO., LTD., Japan). Under these conditions, the compounds of the present invention were intravenously administered through a polyethylene tube inserted to a femoral veinlet, and the change in blood flow was measured for 30 minutes by means of the electromagnetic blood flowmeter.
(§3) The effects (dilation of the arteries) of the compounds of the present invention on blood flow in coronary, vertebral and femoral arteries were examined according to the method as mentioned hereinbefore.

The next series has as its system bronchial tubes. The series is described as follows: Inhibition of histamine contraction of bronchial tubes (relaxation of bronchial tubes). As to conditions: Cavia porcellus; guinea pig bronchial tube, 10 μM histamine; Table 16; read-out: ED50 (50% decrease of histamine contraction of bronchial tubes).
A further series concerns mesenteric artery. Put plainly: Relaxation of mesenteric artery (KCl-contracted). The conditions noted are these: Oryctolagus cuniculus; rabbit mesenteric artery contracted with 15 to 20 mM KCl; read-out: ED50 (concentration attaining 50% of complete relaxation).
Another series can be described thus: Acute toxicity in mice. As to conditions: mouse, in vivo, male mice. On the procedure: (§4) Using ddY male mice and Wistar male rats, the acute toxicity of the compounds of the present invention was examined with respect to LD50 according to the method proposed by K. Takagi et al. (K. Takagi and H. Ozawa, "Expeprimental Techniques in Pharmacology," p200-206 (1960), NANZANDO CO., LTD., Japan).
(§5) Compounds of the present invention were tested with respect to acute toxicities according to the method as mentioned hereinbefore.

Another series relates to vertebral artery. Put plainly: Blood flow increase of vertebral artery in anesthetized dogs, i.v. Format: in vivo, dog (mongrel). The conditions noted are these: Canis lupus familiaris, iv, dog; for change in vivo at 0.3 mg/kg: i.v., read-out: Increase in vertebral artery blood flow. On the procedure: as §1, §2, §3
The nature of the next series: Acute toxicity in rats. As to conditions: in vivo, male rat. On the procedure: as §4, §5
A further series relates to coronary artery. The series is described as follows: Blood flow increase of coronary artery in anesthetized dogs, i.v. As to conditions: Canis lupus familiaris, iv, dog; for change in vivo at 0.3 mg/kg: i.v., read-out: Increase in coronary artery blood flow. The format is in vivo, dog (mongrel). How it is done: as §1, §2, §3

For the compound `NC1CCCN(S(=O)(=O)c2cccc3cnccc23)C1` (stereo not drawn) [Compound (63), 1-(5-isoquinolinesulfonyl)-3-aminopiperidine], the change in vivo at 1 mg/kg with femoral artery (1.0 mg/kg) worked out at 38%; with vertebral artery (1.0 mg/kg), 95%; in the series with coronary artery (1.0 mg/kg), 128%. Besides, the change in vivo at 0.3 mg/kg turned out to be 20% in the series with femoral artery, 72% in the series with vertebral artery and 91% with coronary artery. For the same compound, the EC50 with bronchial tubes and in the series on mesenteric artery was 3000 nM each time. The 50% lethal dose (LD50) in the series “Acute toxicity in mice” (iv) was 176 mg/kg; in “Acute toxicity in mice” (po), 1120 mg/kg; in the series “Acute toxicity in rats” (iv) it was 194 mg/kg; in the series “Acute toxicity in rats” (po), 1220 mg/kg.

For the compound `CCCCCCN(CCN)S(=O)(=O)c1cccc2cnccc12` [Compound (4), N-(2-aminoethyl)-N-hexyl-5-isoquinolinesulfonamide], the change in vivo at 0.3 mg/kg with femoral artery is 38%; with vertebral artery it was 170%; in the series with coronary artery it was 188%. The EC50 in the series with bronchial tubes was 3000 nM; in the series on mesenteric artery it was 1000 nM. For the same compound, the LD50 in the series “Acute toxicity in mice” (iv) was 95 mg/kg; in the series “Acute toxicity in mice” (po) it was 1100 mg/kg; in the series “Acute toxicity in rats” (iv), 131 mg/kg; in “Acute toxicity in rats” (po), 968 mg/kg.
